Data set [1] in a line: Cell Titre Blue viability assay, MDA-MB-231. The following applies: human, MDA-MB-231 cells.
Method: The viability of cells at experimental endpoints for particular assays was determined using the Cell Titre Blue reagent (Promega, Southampton, UK). This reagent measures the cellular metabolic activity using resazurin as an indicator dye. Viable cells, therefore metabolically active, will reduce resazurin into highly fluorescent resofurin. The resulting fluorescence levels are measured and indicate cell viability.
Cells were plated at low confluency into 96 well plates in 100 μl of complete growth media in triplicates and were incubated at 37° C. in 5% CO2 for the desired test exposure period. For each 100 μl of media in 96 well plates, 20 μl Cell Titre Blue reagent was added followed by incubation for an hour at 37° C. in 5% CO2. Fluorescence was then measured by setting excitation/emission wavelengths to 560/590 nm on a Flurostar Optima plate reader (BMG tabtech, Bucks, UK).
Cell toxicity was evaluated using the Cell Titre Blue viability assay over a range of molarities for 24 hrs.
Selected compounds were dissolved in DMSO and diluted to a highest concentration of 10 μM (0.1% DMSO). In all assays, a DMSO control was always used. Selected compounds were tested for cell toxicity in HEK-293 and MDA-MB-231 cells before being used in cell-based assays. Cell toxicity was evaluated using the Cell Titre Blue viability assay over a range of molarities for 24 hrs
A short description of data set [2]: Cell Titre Blue viability assay, HEK-293. The class given is cell-based. The settings on record: human, HEK-293 cells, HEK-293, 10 μM, vs DMSO. The text has this: In all assays, a DMSO control was always used.
The subject of a further data set is MDA-MB-231 cells. The following applies: 10 µM.
A further data set relates to NF-κB activity. The data set is described as follows: NF-κB luciferase reporter assay in MDA-MB-231 cells overexpressing Bcl-3. Type of data set: cell-based, human. The following applies: for IC50: MDA-MB-231 overexpressing Bcl-3, 24 hrs then reporter 48 hrs, read-out: IC50 NF-κB activity. Here is the method:
For NF-κB luciferase assays, cells were seeded into clear bottom black 96-well plates (Corning Inc., Lowell, US) in antibiotic free culture media in appropriate density. After 24 hrs, cells were transfected with 10 ng of 3×κB luciferase plasmid and 10 ng of pcDNA3.1-Lacl plasmid per well. Empty pcDNA3.1 plasmid was also included to normalize the total weight of DNA transfected to 100 ng. For positive and negative controls respectively, 10 ng of pGL3control or pGL3basic were transfected in place of 3×KB luciferase plasmid. Transfection was carried out using Lipofectamine LTX reagents (Invitrogen, Paisley, UK).
After 48 hrs post-transfection with luciferase reporter plasmid, the media was aspirated and cells were lyzed using 50 μl/well of Glo-lysis buffer (Promega, Southampton, UK). The plate was left on a rocker for 20 min to facilitate complete cell lysis. Then, 20 μl of lysate from each well was removed and transferred into a new clear bottom black well plate for measuring LacZ activity as a transfection efficiency control and followed by addition of 20 ul/well of Beta-Glo substrate (Promega, Southampton, UK) and cultivation at room temperature for at least 20 min. Subsequently, 30 μl/well of Bright-Glo luciferase substrate (Promega, Southampton, UK) was added to the original plate and asses immediately for luminescence activity. The luminescence produced from either reaction was read using a Flurostar Optima plate reader (BMG tabtech, Bucks, UK).
The effect of Compound 1a on NF-κB activity was determined by NF-κB luciferase assay in MDA-MB-231 and HEK-293 cells overexpressing Bcl-3 and HEK-293 cells overexpressing p52. Cells were cultivated with Compound 1a over a range of molarities for 24 hrs before being transfected with NF-κB luciferase reporter plasmid for 48 hrs and analyzed for NF-κB activity.
The effect of selected analogues on NF-κB activity was determined by NF-KB luciferase assay in MDA-MB-231 cells. MDA-MB-231 Bcl-3 over-expressing cells were cultivated with compounds from series 1-3 at 1 μM concentration for 24 hrs before being transfected with NF-κB luciferase reporter plasmid for 48 hrs together with controls and analyzed for NF-κB activity.
Based on the results for the series of analogues, we have established dose response curve for selected analogues from series 1 (If), from series 2 (2a and 2c) and from series 3 (3a) over a range of molarities. MDA-MB-231 Bcl-3 WT cells were cultivated with selected compounds from series 1-3 over a range of molarities for 24 hrs before being transfected with NF-κB luciferase reporter plasmid for 48 hrs together with controls and analyzed for NF-κB activity (FIG. 7).
On the technique in general: A reporter such as luciferase makes a cellular process visible.

The structures appear in SMILES notation.

Usually viability stands for the share of living cells, or the viability signal relative to a control. Take `O=C(Nc1ccccc1C(=O)NCCN1CCOCC1)c1ccc(F)cc1` [Compound 1c, 2-[(4-fluorobenzoyl)amino]-N-(2-morpholin-4-ylethyl)benzamide]: the viability at 24 h, 10 µM in data set [1] and in data set [2] was above 70% each time.

With `COc1cccc(C(=O)Nc2ccccc2C(=O)NCCN2CCOCC2)c1` [Compound 1e, 2-[(3-methoxybenzoyl)amino]-N-(2-morpholin-4-ylethyl)benzamide], the viability at 24 h, 10 µM in data set [1] and in data set [2] was above 70% in each case.

As for `O=C(NCCN1CCOCC1)c1ccccc1NC(=O)c1ccccc1[N+](=O)[O-]` [Compound 1g, 2-[(2-nitrobenzoyl)amino]-N-(2-morpholin-4-ylethyl)benzamide], the viability at 24 h, 10 µM in data set [1] and in data set [2] was above 70% each time.

Consider `O=C(Nc1ccccc1C(=O)NCCN1CCOCC1)c1ccc([N+](=O)[O-])cc1` [Compound 1i, 2-[(4-nitrobenzoyl)amino]-N-(2-morpholin-4-ylethyl) benzamide], for which, in the data set with MDA-MB-231 cells, the cell viability entry is given as “above 70%”.

As usually defined, the IC50 is the concentration at which inhibition is half-maximal. Take `O=C(Nc1ccccc1C(=O)NCCN1CCOCC1)c1cc(F)cc(F)c1` [Compound 1o, 3,5-difluoro-N-(2-[(2-morpholin-4-ylethyl)carbamoyl]phenyl) benzamide]: in the data set on NF-κB activity, the IC50 came to 238 nM.

Regarding `O=C(NCCN1CCOCC1)c1ccccc1NC(=O)c1c(F)cccc1F` [Compound 1p, 2,6-difluoro-N-(2-[(2-morpholin-4-ylethyl)carbamoyl]phenyl) benzamide], in the data set with NF-κB activity, the IC50 was 706 nM.

With `O=C(Nc1ccccc1C(=O)NCCN1CCOCC1)c1ccc(F)cc1F` [Compound 1q, 2,4-difluoro-N-(2-[(2-morpholin-4-ylethyl)carbamoyl]phenyl) benzamide], the IC50 in the data set with NF-κB activity was found to be 989 nM.

For the compound `O=C(Nc1ccc(I)cc1C(=O)NCCN1CCOCC1)c1ccccc1F` [Compound 3c, 2-[(2-fluorobenzoyl)amino]-5-iodo-N-(2-morpholin-4-ylethyl)benzamide], in the data set with NF-κB activity (1 μM, 24 hrs, MDA-MB-231 Bcl-3 over-expressing cells, vs DMSO control / Compound 1a), the “effect on NF-κB activity” value is “significant decrease in NF-κB activity”.

The values are drawn from US20220017478A1, “2-BENZOYLAMINOBENZAMIDE DERIVATIVES AS BCL-3 INHIBITORS” (University College Cardiff Consultants Limited, priority 2013, published 2022).
